# In patent US20230322846A9, “NEUROACTIVE STEROIDS AND THEIR METHODS OF USE” (SAGE THERAPEUTICS, INC., priority 2018, published 2023):
# Biological target: [35S]-TBPS binding, rat brain cortical membranes
# Assay: Steroid inhibition of [35S]-TBPS binding
# Settings: 3 nM [35S]-TBPS, in the presence of 5 mM GABA
# Method in brief: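 Rat cortical P2 membranes incubated 90 min at room temperature with 3 nM [35S]-TBPS, […] and test compound (0.5% DMSO final) in NaCl/Na–K phosphate pH 7.4; nonspecific binding with […]. Filter-bound radioactivity counted; IC50 and Imax from nonlinear fits, mean ± SEM.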
row,SMILES,IC50 [nM]
1,"CCC[C@@]1(O)CC[C@@]2(COC)[C@H](CC[C@H]3[C@@H]4CC[C@H]([C@@H](C)Cn5nnnc5C)[C@@]4(C)CC[C@@H]32)C1 [Example 321, (3R,5R,8S,9S,10R,13S,14S,17R)-10-(methoxymethyl)-13-methyl-17-((R)-1-(5-methyl-1H-tetrazol-1-yl)propan-2-yl)-3-propylhexadecahydro-1H-cyclopenta[a]phenanthren-3-ol]",< 100
2,C[C@H](NC(=O)c1ccc(C#N)cc1)[C@H]1CC[C@H]2[C@@H]3CC[C@@H]4C[C@](C)(O)CC[C@@H]4[C@H]3CC[C@]12C [Example 115],1000 to 10000
3,"COC[C@@]1(O)CC[C@H]2[C@@H](CC[C@@H]3[C@@H]2CC[C@]2(C)[C@@H](CCn4nnnc4C)CC[C@@H]32)C1 [Example 296, (3R,5S,8R,9R,10S,13R,14S,17R)-3-(methoxymethyl)-13-methyl-17-(2-(5-methyl-1H-tetrazol-1-yl)ethyl)hexadecahydro-1H-cyclopenta[a]phenanthren-3-ol]",< 100
4,COc1cncc(C[C@H](C)[C@H]2CC[C@H]3[C@@H]4CC[C@@H]5C[C@](C)(O)CC[C@@H]5[C@H]4CC[C@]23C)c1 [Example 432],< 100
5,"CCOC[C@@]1(O)CC[C@H]2[C@H](CC[C@@H]3[C@@H]2CC[C@]2(C)[C@@H]([C@@H](C)Cn4nccc4C#N)CC[C@@H]32)C1 [Example 285, 1-((R)-2-((3R,5R,8R,9R,10S,13S,14S,17R)-3-(ethoxymethyl)-3-hydroxy-13-methylhexadecahydro-1H-cyclopenta[a]phenanthren-17-yl)propyl)-1H-pyrazole-5-carbonitrile]",< 100
6,"CC[C@@]1(O)CC[C@H]2[C@@H](CC[C@@H]3[C@@H]2CC[C@]2(C)[C@@H]([C@@H](C)Cn4nnnc4C)CC[C@@H]32)C1 [Example 335, (3R,5S,8R,9R,10S,13S,14S,17R)-3-ethyl-13-methyl-17-((R)-1-(5-methyl-1H-tetrazol-1-yl)propan-2-yl)hexadecahydro-1H-cyclopenta[a]phenanthren-3-ol]",100 to 1000
7,"CCC[C@@]1(O)CC[C@@]2(C)[C@H](CC[C@@H]3[C@@H]2[C@@H](O)C[C@]2(C)[C@@H]([C@H](C)Cn4cc(C#N)cn4)CC[C@@H]32)C1 [Example 310, 1-((S)-2-((3R,5R,8S,9S,10S,11S,13S,14S,17R)-3,11-dihydroxy-10,13-dimethyl-3-propylhexadecahydro-1H-cyclopenta[a]phenanthren-17-yl)propyl)-1H-pyrazole-4-carbonitrile]",100 to 1000
8,"CCC[C@@]1(O)CC[C@H]2[C@@H](CC[C@@H]3[C@@H]2CC[C@]2(C)[C@@H]([C@H](C)Cn4nnnc4C)CC[C@@H]32)C1 [Example 331, (3R,5S,8R,9R,10S,13S,14S,17R)-13-methyl-17-((S)-1-(5-methyl-1H-tetrazol-1-yl)propan-2-yl)-3-propylhexadecahydro-1H-cyclopenta[a]phenanthren-3-ol]",≥ 10000
9,"C[C@@]1(O)CC[C@H]2[C@H](CC[C@@H]3[C@@H]2CC[C@]2(C)[C@@H](CN4C(=O)CCC[C@@H]4c4ccccc4)CC[C@@H]32)C1 [Example 13, (R)-1-(((3R,5R,8R,9R,10S,13S,14S,17S)-3-hydroxy-3,13-dimethylhexadecahydro-1H-cyclopenta[a]phenanthren-17-yl)methyl)-6-phenylpiperidin-2-one]",< 100
10,C[C@@H](NC(=O)c1ccccc1F)[C@H]1CC[C@H]2[C@@H]3CC[C@@H]4C[C@](C)(O)CC[C@@H]4[C@H]3CC[C@]12C [Example 103],< 100
11,"CC[C@@]1(O)CC[C@@]2(C)[C@H](CC[C@@H]3[C@@H]2CC[C@]2(C)[C@@H]([C@@H](C)Cn4nccc4C#N)CC[C@@H]32)C1 [Example 63, 1-((R)-2-((3R,5R,8R,9S,10S,13S,14S,17R)-3-ethyl-3-hydroxy-10,13-dimethylhexadecahydro-1H-cyclopenta[a]phenanthren-17-yl)propyl)-1H-pyrazole-5-carbonitrile]",< 100
12,COC[C@@]1(O)CC[C@H]2[C@H](CC[C@@H]3[C@@H]2CC[C@]2(C)[C@@H]([C@H](C)Cc4nc(C)ccc4Cl)CC[C@@H]32)C1 [Example 425],1000 to 10000
13,"C[C@@H]([C@H]1CC[C@H]2[C@@H]3CC[C@@H]4C[C@](C)(O)CC[C@@H]4[C@H]3CC[C@]12C)N(C)S(=O)(=O)c1ccccc1 [Example 21, N—((S)-1-((3R,5R,8R,9R,10S,13S,14S,17S)-3-hydroxy-3,13-dimethylhexadecahydro-1H-cyclopenta[a]phenanthren-17-yl)ethyl)-N-methylbenzenesulfonamide]",1000 to 10000
14,CCOC[C@@]1(O)CC[C@H]2[C@H](CC[C@@H]3[C@@H]2CC[C@]2(C)[C@@H]([C@H](C)Cc4cccc(C#N)n4)CC[C@@H]32)C1 [Example 412],100 to 1000
15,"COC[C@@]1(O)CC[C@H]2[C@H](CC[C@@H]3[C@@H]2CC[C@]2(C)[C@@H](CCn4nccn4)CC[C@@H]32)C1 [Example 49, (3R,5R,8R,9R,10S,13R,14S,17R)-17-(2-(2H-1,2,3-triazol-2-yl)ethyl)-3-(methoxymethyl)-13-methylhexadecahydro-1H-cyclopenta[a]phenanthren-3-ol]",< 100
16,"CCOC[C@@]1(O)CC[C@@]2(C)[C@H](CC[C@@H]3[C@@H]2CC[C@]2(C)[C@@H]([C@H](CC)Nc4ccc(C#N)nc4)CC[C@@H]32)C1 [Example 494, 5-(((S)-1-((3R,5R,8R,9S,10S,13S,14S,17S)-3-(ethoxymethyl)-3-hydroxy-10,13-dimethylhexadecahydro-1H-cyclopenta[a]phenanthren-17-yl)propyl)amino)picolinonitrile]",100 to 1000
17,C[C@@H](Nc1cccc(C#N)c1)[C@H]1CC[C@H]2[C@@H]3CC[C@@H]4C[C@](C)(O)CC[C@@H]4[C@H]3CC[C@]12C [Example 202],< 100
18,"CC[C@@]1(O)CC[C@H]2[C@H](CC[C@@H]3[C@@H]2CC[C@]2(C)[C@@H]([C@@H](C)Cn4nccc4C#N)CC[C@@H]32)C1 [Example 273, 1-((R)-2-((3R,5R,8R,9R,10S,13S,14S,17R)-3-ethyl-3-hydroxy-13-methylhexadecahydro-1H-cyclopenta[a]phenanthren-17-yl)propyl)-1H-pyrazole-5-carbonitrile]",< 100
19,COC[C@@]1(O)CC[C@H]2[C@H](CC[C@@H]3[C@@H]2CC[C@]2(C)[C@@H]([C@@H](C)NC(=O)c4ccc(F)cc4F)CC[C@@H]32)C1 [Example 134],< 100
20,"C[C@H]([C@H]1CC[C@H]2[C@@H]3CC[C@@H]4C[C@](C)(O)CC[C@@H]4[C@H]3CC[C@]12C)N1Cc2cc(C#N)ccc2C1=O [Example 40, 2-((R)-1-((3R,5R,8R,9R,10S,13S,14S,17S)-3-hydroxy-3,13-dimethylhexadecahydro-1H-cyclopenta[a]phenanthren-17-yl)ethyl)-1-oxoisoindoline-5-carbonitrile]",< 100
21,C[C@H](Cc1ccc(C(F)(F)F)nc1)[C@H]1CC[C@H]2[C@@H]3CC[C@@H]4C[C@](C)(O)CC[C@]4(C)[C@H]3CC[C@]12C [Example 426],100 to 1000
22,"CC[C@@]1(O)CC[C@H]2[C@H](CC[C@@H]3[C@@H]2CC[C@]2(C)[C@@H]([C@H](C)Cn4ccc(C#N)n4)CC[C@@H]32)C1 [Example 271, 1-((S)-2-((3R,5R,8R,9R,10S,13S,14S,17R)-3-ethyl-3-hydroxy-13-methylhexadecahydro-1H-cyclopenta[a]phenanthren-17-yl)propyl)-1H-pyrazole-3-carbonitrile]",< 100
23,COC[C@@]1(O)CC[C@H]2[C@H](CC[C@@H]3[C@@H]2CC[C@]2(C)[C@@H]([C@@H](C)Nc4ccc(C#N)cc4)CC[C@@H]32)C1 [Example 256],< 100
24,COC[C@@]1(O)CC[C@H]2[C@H](CC[C@@H]3[C@@H]2CC[C@]2(C)[C@@H]([C@H](C)NC(=O)c4cc(C)nn4C)CC[C@@H]32)C1 [Example 119],1000 to 10000
25,"CCOC[C@@]1(O)CC[C@H]2[C@H](CC[C@@H]3[C@@H]2CC[C@]2(C)[C@@H]([C@@H](C)Cn4ccnn4)CC[C@@H]32)C1 [Example 268, (3R,5R,8R,9R,10S,13S,14S,17R)-17-((R)-1-(1H-1,2,3-triazol-1-yl)propan-2-yl)-3-(ethoxymethyl)-13-methylhexadecahydro-1H-cyclopenta[a]phenanthren-3-ol]",< 100
26,"COC[C@@]1(O)CC[C@H]2[C@H](CC[C@@H]3[C@@H]2CC[C@]2(C)[C@@H]([C@@H](C)Cn4ccc(C#N)n4)CC[C@@H]32)C1 [Example 36, 1-((R)-2-((3R,5R,8R,9R,10S,13S,14S,17R)-3-hydroxy-3-(methoxymethyl)-13-methylhexadecahydro-1H-cyclopenta[a]phenanthren-17-yl)propyl)-1H-pyrazole-3-carbonitrile]",< 100
27,"CCC[C@@]1(O)CC[C@@]2(C)[C@H](CC[C@@H]3[C@@H]2[C@H](O)C[C@]2(C)[C@@H]([C@H](C)Cn4cc(C#N)cn4)CC[C@@H]32)C1 [Example 338, 1-((S)-2-((3R,5R,8S,9S,10S,11R,13S,14S,17R)-3,11-dihydroxy-10,13-dimethyl-3-propylhexadecahydro-1H-cyclopenta[a]phenanthren-17-yl)propyl)-1H-pyrazole-4-carbonitrile]",100 to 1000
